Experimental data taken from the supplement of paper PMC5412046.
Where a name gives a salt, the structure may show the parent alone.

Legend:
[1] = system: SB.mhdgc-1; experiment: AC50 for growth inhibition (viability) (log10 M); higher = less potent; settings: SB.mhdgc-1 (hereditary c.1380delA CDH1 gastric cancer)
Outline: (§1)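 Gastric cancer cells derived from patients with hereditary or sporadic disease were seeded at 500 cells in 5 μL medium per 1536 well. A pintool delivered 23 nL of compound in DMSO, as 11 threefold dilutions from a final 46 μM. After 48 h, CellTiter-Glo was added for 30 min at room temperature and luminescence was read on a ViewLux. The log half-maximal activity concentration was taken from a four-parameter fit of viability normalised to DMSO, using only high-quality curve classes.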

[2] = system: SB.msgc-1; experiment: as above; settings: SB.msgc-1 (sporadic gastric cancer)
Outline: as §1

SMILES	AC50 for growth inhibition (log10 M) [1]	AC50 for growth inhibition (log10 M) [2]
FC1=C(C=C(C\C2=N\NC(=O)C3=C2C=CC=C3)C=C1)C(=O)N4CCN(CC4)C(=O)C5CC5 [Olaparib]	-5.48	-4.78
COc1ccc(/C=C\c2cc(OC)c(OC)c(OC)c2)cc1NC(=O)[C@H](N)CO [Ombrabulin]	-7.78	-8.38
COC[C@H](NC(=O)c1cnc(C)s1)C(=O)N[C@@H](COC)C(=O)N[C@@H](Cc1ccccc1)C(=O)[C@@]1(C)CO1 [Oprozomib]	-6.93	-6.93
Cc1[nH]c(/C=C2\C(=O)Nc3ccccc32)c(C)c1CCC(=O)O [Orantinib]	-6.48	-5.13
C=C1C(=O)[C@@]23C(CC[C@@H]1[C@H]2O)[C@@]12CO[C@]3(O)[C@@H](O)[C@@H]1C(C)(C)CC[C@@H]2O (stereo partly drawn) [Oridonin]	-4.98	-4.73
CC(=O)N(C)C1(c2ccccc2)CCN(CCC[C@]2(c3ccc(Cl)c(Cl)c3)CCCN(C(=O)c3ccccc3)C2)CC1 [Osanetant]	-4.98	-4.78
COC1=C(CC=C(C)C)C2=C(\C=C/C(=O)O2)C=C1 [Osthol]	-5.78	-5.53
O=C1[O][Pt]2([NH]C3CCCCC3[NH]2)[O]C1=O (stereo not drawn) [Oxaliplatin]	-4.73	-5.58
O=C(C=CC#Cc1cccc(N[S+](=O)([O-])c2ccccc2)c1)NO [Oxamflatin]	-5.28	-5.58
C=CCc1cccc(/C=N/NC(=O)CN2CCN(Cc3ccccc3)CC2)c1O [PAC-1]	-5.13	-5.23
C[C@]1(CO)CN(c2cc(C(=O)Nc3ccc4c(c3)-c3c(c(C(N)=O)nn3-c3ccc(F)cc3)CC4)c(Cl)cn2)C[C@@]1(C)CO [PF-184]	-5.43	-5.08
Cc1cc(C[S+](=O)([O-])c2ccccc2)cc(OCc2ccc(CN3CCC[C@@H]3CO)cc2)c1 [PF-543]	-4.78	-4.83
CN1CCN(c2cc(C(=O)Nc3ccc4c(c3)-c3c(c(C(N)=O)nn3-c3ccc(F)cc3)CC4)c(Cl)cn2)CC1 [PHA-408]	-5.88	-5.93
Oc1cccc(-c2nc(N3CCOCC3)c3oc4ncccc4c3n2)c1 [PI-103]	-6.12	-4.92
Cc1ccc([N+](=O)[O-])cc1[S+](=O)([O-])N(C)/N=C/c1cnc2ccc(Br)cn12 [PIK-75]	-8.03	-7.98
COC1=CC=C2/C3=N/CCN3\C(=N/C2=C1OC)NC(=O)C4=CC=CN=C4 [PIK-90]	-5.33	-4.98
CC1=C(C=CC=C1)N2\C(=N/C3=C(C(=CC=C3)C)C2=O)C[N]4N=CC5=C4N=CN=C5N [PIK-293]	-6.73	-7.08

SMILES	AC50 for growth inhibition (log10 M) [1]	AC50 for growth inhibition (log10 M) [2]
CCn1nnc2c(N3CCOCC3)nc(-c3ccc(NC(=O)Nc4ccc(C(=O)N5CCN(C)CC5)cc4)cc3)nc21 [PKI-402]	-5.43	-5.88
Nc1ncnc2c1c(-c1cnc3[nH]ccc3c1)nn2C1CCCC1 [PP-121]	-5.78	-5.38
CC(C)n1nc(-c2cc3cc(O)ccc3[nH]2)c2c(N)ncnc21 [PP-242]	-6.93	-5.28
CCc1ccc(C(=O)Nc2cc(CN3CCN(C)CC3)cc(C(F)(F)F)c2)cc1C#Cc1cnc2ccnn2c1 [PRP003-013]	-5.13	-4.78
CCC(C)SSc1ncc[nH]1 (stereo not drawn) [PX-12]	-4.63	-4.58
Cc1[nH]c2ccccc2c1CCNCc1ccc(/C=C/C(=O)NO)cc1 [Panobinostat]	-6.08	-6.98
COc1ccc(Cc2nccc3cc(OC)c(OC)cc23)cc1OC [Papaverine hydrochloride]	-6.88	-4.73
ClC1=CC=C(CCCOC/2=N/NC(=O)C(=C2NCC3=CN=CC=C3)/Br)C=C1 [Parogrelil]	-5.13	-4.83
C=C1C(=O)O[C@@H]2[C@H]3O[C@]3(C)CC/C=C(\C)CC[C@@H]12 [Parthenolide]	-5.18	-4.83
CCOc1cc2ncc(C#N)c(Nc3ccc(F)c(Cl)c3)c2cc1NC(=O)/C=C/CN(C)C [Pelitinib]	-7.38	-7.43
NC/1=N/C(=O)C2=C([NH]C=C2CCC3=CC=C(C=C3)C(=O)N[C@@H](CCC(O)=O)C(O)=O)N1 [Pemetrexed disodium]	-6.33	-6.23
CC1=CC=C(C=C1)N(C\C2=N\CCN2)C3=CC=CC(=C3)O [Phentolamine mesilate]	-4.98	-4.68
O=C(CCc1ccc(O)cc1)c1c(O)cc(O)cc1O [Phloretin]	-7.33	-7.13
CCCCN1CCC(CNC(=O)c2c3n(c4ccccc24)CCCO3)CC1 [Piboserod hydrochloride]	-5.53	-5.53
COc1cc([C@@H]2c3cc4c(cc3[C@H](O)[C@H]3COC(=O)[C@@H]23)OCO4)cc(OC)c1OC [Picropodophyllin]	-6.48	-6.73
Nc1nccc(-c2ccc3noc(-c4ccc(Cl)cc4)c3c2)n1 [Pim 1 inhibitor 2]	-5.48	-5.03
O=C(NC[C@H](O)CO)c1ccncc1Nc1ccc(I)cc1F [Pimasertib]	-4.73	-6.38
